Our source for the IC50 values is patent US9193736B2, “PDE 10a inhibitors for the treatment of type II diabetes” (Janssen Pharmaceutica, NV, priority 2013, dated 2015).

Structures can show the parent of a compound that is named as a salt. Some results are limits rather than exact numbers.

Assay [1] concerns the target Rat recombinant PDE10a (rPDE10a) (Rattus norvegicus (Rat), UniProt Q9QYJ6). In words: In vitro assay PDE10a: rat recombinant PDE10a SPA with 3H-cAMP substrate, IC50. The following applies: 60 nM cAMP, read-out: rPDE10a2 IC50. The assay is classed as biochemical. On the procedure: In Vitro Assay PDE10a Rat recombinant PDE10a (rPDE10a) was expressed in Sf9 cells using a recombinant rPDE10a baculovirus construct. Cells were harvested after 48 h of infection and the rPDE10a protein was purified by metal chelate chromatography on Ni-sepharose 6FF. Tested compounds were dissolved and diluted in 100% DMSO to a concentration 100 fold of the final concentration in the assay. […] The reaction was incubated for 60 min at rt. After incubation, the reaction was stopped with 20 μL of 17.8 mg/mL PDE SPA beads. […] For blank values the enzyme was omitted from the reaction and replaced by incubation buffer.

Assay [2] has as its target Human recombinant PDE10A2 (Homo sapiens (Human), UniProt Q9Y233). In words: In vitro hPDE10a: human recombinant PDE10A2 scintillation proximity assay, IC50. The assay is classed as biochemical. The following applies: human recombinant PDE10A2, SPA, 60 nM cAMP; read-out: hPDE10a2 IC50. On the procedure: Cells were harvested and the phosphodiesterase protein was purified by metal chelate chromatography on Ni-sepharose 6FF. The affinity of the compounds of Formula (I) for phophodiesterases (PDE) was measured by a scintillation proximity assay (SPA). PDE Yttrium Silicate SPA beads allow PDE activity to be measured by direct binding of the primary phosphate groups of non-cyclic AMP or GMP to the beads via a complex iron chelation mechanism. The amount of bound tritiated product ([^3H]-AMP) is measured by liquid scintillation counting. The compounds were dissolved and diluted in 100% DMSO in polystyrene plates to a concentration of 100-fold the final concentration in the assay. […] After incubation, the reaction was stopped with 20 μL of stop solution, consisting of PDE SPA beads (17.8 mg beads/mL in 18 mM zinc sulphate). […] To measure the low control, no enzyme was added to the reaction mixture. Data were calculated as the percentage of inhibition of total activity measured in the absence of test compound (% control). […] For compounds tested more than once, the data points were aggregated.
(In a scintillation proximity assay essentially only radioactivity close to the scintillant gives light.)

Sequence of Human recombinant PDE10A2 (Q9Y233 267-1055): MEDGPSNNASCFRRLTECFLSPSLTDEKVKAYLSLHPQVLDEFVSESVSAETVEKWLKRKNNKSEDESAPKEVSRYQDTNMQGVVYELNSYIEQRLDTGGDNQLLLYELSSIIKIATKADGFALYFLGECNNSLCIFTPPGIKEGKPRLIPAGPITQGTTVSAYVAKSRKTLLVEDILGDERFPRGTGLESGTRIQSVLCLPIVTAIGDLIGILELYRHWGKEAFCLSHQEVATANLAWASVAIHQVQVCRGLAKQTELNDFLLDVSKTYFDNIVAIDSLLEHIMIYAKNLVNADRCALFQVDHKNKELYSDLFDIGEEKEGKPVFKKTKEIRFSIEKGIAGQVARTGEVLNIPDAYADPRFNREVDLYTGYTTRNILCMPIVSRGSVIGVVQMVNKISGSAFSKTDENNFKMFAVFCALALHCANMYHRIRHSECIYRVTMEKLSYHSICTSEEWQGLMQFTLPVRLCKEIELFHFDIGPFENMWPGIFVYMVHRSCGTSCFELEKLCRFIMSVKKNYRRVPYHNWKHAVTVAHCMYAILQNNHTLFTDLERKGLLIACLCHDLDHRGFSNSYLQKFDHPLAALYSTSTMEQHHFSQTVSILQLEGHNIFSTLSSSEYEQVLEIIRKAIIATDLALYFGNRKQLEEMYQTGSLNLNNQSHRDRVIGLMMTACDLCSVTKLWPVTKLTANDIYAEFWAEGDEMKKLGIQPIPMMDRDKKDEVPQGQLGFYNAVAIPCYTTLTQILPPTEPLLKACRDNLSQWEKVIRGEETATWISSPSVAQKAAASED
Sequence of Rat recombinant PDE10a (rPDE10a) (Q9QYJ6 whole entry): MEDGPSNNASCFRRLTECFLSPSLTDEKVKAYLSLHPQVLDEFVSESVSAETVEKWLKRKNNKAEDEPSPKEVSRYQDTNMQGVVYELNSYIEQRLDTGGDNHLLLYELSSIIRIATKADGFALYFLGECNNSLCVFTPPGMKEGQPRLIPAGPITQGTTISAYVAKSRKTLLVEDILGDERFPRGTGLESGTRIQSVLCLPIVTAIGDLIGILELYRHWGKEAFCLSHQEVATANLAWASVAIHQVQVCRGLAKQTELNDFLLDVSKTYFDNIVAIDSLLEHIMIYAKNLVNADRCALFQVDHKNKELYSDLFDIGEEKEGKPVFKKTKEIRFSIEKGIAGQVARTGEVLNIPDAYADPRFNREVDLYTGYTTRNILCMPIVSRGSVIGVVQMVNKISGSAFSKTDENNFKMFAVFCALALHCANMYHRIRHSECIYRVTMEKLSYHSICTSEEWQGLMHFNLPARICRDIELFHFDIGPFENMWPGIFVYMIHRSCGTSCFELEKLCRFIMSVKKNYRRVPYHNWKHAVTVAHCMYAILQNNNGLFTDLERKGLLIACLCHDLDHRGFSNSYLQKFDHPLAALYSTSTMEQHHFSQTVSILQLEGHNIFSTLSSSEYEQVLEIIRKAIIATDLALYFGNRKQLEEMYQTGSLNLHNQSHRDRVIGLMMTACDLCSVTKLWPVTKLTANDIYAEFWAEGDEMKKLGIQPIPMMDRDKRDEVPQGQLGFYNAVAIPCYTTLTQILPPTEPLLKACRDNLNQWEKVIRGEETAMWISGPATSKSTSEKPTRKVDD

In the case of `O=c1ncn(-c2ccc(-c3c(CCc4ccc5ccccc5n4)nc4c(N5CCOCC5)ccnn34)cc2)[nH]1` [Cpd 59, 1-(4-(8-Morpholino-2-(2-(quinolin-2-yl)ethyl)imidazo[1,2-b]pyridazin-3-yl)phenyl)-1,2-dihydro-1,2,4-triazol-3-one trifluoroacetic acid salt], the 50% inhibitory concentration (IC50) (commonly the concentration that inhibits the measured activity by half) amounted to 6 nM in assay [1] and 5 nM in assay [2].

Turning to `CS(=O)(=O)NC(=O)c1cccc2nc(/C=C/c3cn4nc(Cl)cc(N5CCOCC5)c4n3)ccc12` [Cpd 104, 2-[(E)-2-(6-Chloro-8-morpholin-4-ylimidazo[1,2-b]pyridazin-2-yl)ethenyl]-N-(methylsulfonyl)quinoline-5-carboxamide], the IC50 was 8 nM in assay [1] and 3 nM in assay [2].

Take `O=C(O)c1ccc(-c2c(CCc3ccc4ccccc4n3)nc3c(N4CCOCC4)ccnn23)s1` [compound 61, 5-(8-Morpholino-2-(2-(quinolin-2-yl)ethyl)imidazo[1,2-b]pyridazin-3-yl)thiophene-2-carboxylic acid]: the IC50 in assay [1] and in assay [2] was < 1 nM throughout.

With `O=c1[nH]c(-c2ccc(-c3c(/C=C/c4ccc5ccccc5n4)nc4c(N5CCOCC5)ccnn34)cn2)no1` [Cpd 34, (E)-3-(5-(8-Morpholino-2-(2-(quinolin-2-yl)vinyl)imidazo[1,2-b]pyridazin-3-yl)pyridin-2-yl)-1,2,4-oxadiazol-5(4H)-one], the IC50 turned out to be 2 nM in assay [1] and 3 nM in assay [2].

As for `O=C(O)CCNc1ccc(-c2c(/C=C/c3ccc4ccccc4n3)nc3c(N4CCOCC4)ccnn23)cc1` [Cpd 93, (E)-3-(4-(8-Morpholino-2-(2-(quinolin-2-yl)vinyl)imidazo[1,2-b]pyridazin-3-yl)phenylamino)propanoic acid trifluoroacetic acid salt], the IC50 in assay [1] and in assay [2] was 3 nM in each case.

With `COc1ccc(C#Cc2nc3c(N4CCOCC4)ccnn3c2-c2ccc(C(=O)O)cc2)nc1` [Cpd 110, 4-(2-((5-Methoxypyridin-2-yl)ethynyl)-8-morpholinoimidazo[1,2-b]pyridazin-3-yl)benzoic acid], the IC50 in assay [1] and in assay [2] was 2 nM throughout.

As to `O=C1NC(=O)C(c2ccc(-c3c(CCc4ccc5ccccc5n4)nc4c(N5CCOCC5)ccnn34)cc2)O1` (centres unmarked) [Cpd 70, 5-(4-(8-Morpholino-2-(2-(quinolin-2-yl)ethyl)imidazo[1,2-b]pyridazin-3-yl)phenyl)oxazolidine-2,4-dione], the concentration for half-maximal inhibition (IC50) in assay [1] is 7 nM; in assay [2] it was 4 nM.

For the compound `COc1cc(C(=O)O)ccc1-c1c(/C=C/c2ccc3ccccc3n2)nc2c(N3CCOCC3)ccnn12` [compound 98, (E)-3-Methoxy-4-(8-morpholino-2-(2-(quinolin-2-yl)vinyl)imidazo[1,2-b]pyridazin-3-yl)benzoic acid], the IC50 in assay [1] and in assay [2] was 3 nM each time.

Take `CS(=O)(=O)NC(=O)Nc1ccc(-c2c(/C=C/c3ccc4ccccc4n3)nc3c(N4CCOCC4)ccnn23)cc1` [compound 50, (E)-N-((4-(8-Morpholino-2-(2-(quinolin-2-yl)vinyl)imidazo[1,2-b]pyridazin-3-yl)phenyl)carbamoyl)methanesulfonamide]: the concentration for half-maximal inhibition (IC50) in assay [1] stood at 3 nM; in assay [2] it was 8 nM.

Turning to `O=C(O)c1ccc(-c2c(/C=C/c3ccc4ccccc4n3)nc3c(N4CCOCC4)ccnn23)nc1` [compound 113, (E)-6-(8-Morpholino-2-(2-(quinolin-2-yl)vinyl)imidazo[1,2-b]pyridazin-3-yl)nicotinic acid], the IC50 in assay [1] and in assay [2] was 2 nM throughout.

As for `C(=C\c1nc2c(N3CCOCC3)ccnn2c1-c1ccc(Sc2cnn[nH]2)nc1)/c1ccc2ccccc2n1` [Cpd 23, 2-[(E)-2-{8-Morpholin-4-yl-3-[6-(1H-1,2,3-triazol-5-ylsulfanyl)pyridin-3-yl]imidazo[1,2-b]pyridazin-2-yl}ethenyl]quinoline], the values for the IC50 in assay [1] and in assay [2] were 6 nM and 8 nM, respectively.

As to `O=C(O)CN1CCC(c2c(/C=C/c3ccc4ccccc4n3)nc3c(N4CCOCC4)ccnn23)CC1` [Cpd 29, (E)-2-(4-(8-Morpholino-2-(2-(quinolin-2-yl)vinyl)imidazo[1,2-b]pyridazin-3-yl)piperidin-1-yl)acetic acid trifluoroacetic acid salt], the half-inhibitory concentration (IC50) in assay [1] is 49 nM; in assay [2], 39 nM.

Consider `CC(C)[C@H](NC(=O)c1ccc(-c2c(/C=C/c3ccc4ccccc4n3)nc3c(N4CCOCC4)ccnn23)cc1)C(=O)O` [Cpd 73, (S,E)-3-Methyl-2-(4-(8-morpholino-2-(2-(quinolin-2-yl)vinyl)imidazo[1,2-b]pyridazin-3-yl)benzamido)butanoic acid trifluoroacetic acid salt], for which the values for the IC50 in assay [1] and in assay [2] were 7 nM and 8 nM, respectively.

`CS(=O)(=O)Nc1ccc(-c2c(CCc3ccc4ccccc4n3)nc3c(N4CCOCC4)ccnn23)cc1` [compound 45, N-(4-(8-Morpholino-2-(2-(quinolin-2-yl)ethyl)imidazo[1,2-b]pyridazin-3-yl)phenyl)methanesulfonamide]: the IC50 turned out to be 5 nM in assay [1] and 8 nM in assay [2].

`O=C(O)CC1CCN(c2c(/C=C/c3ccc4ccccc4n3)nc3c(N4CCOCC4)ccnn23)CC1` [Cpd 156, (E)-2-(1-(8-Morpholino-2-(2-(quinolin-2-yl)vinyl)imidazo[1,2-b]pyridazin-3-yl)piperidin-4-yl)acetic acid]: the concentration for half-maximal inhibition (IC50) in assay [1] and in assay [2] was 7 nM in each case.

With `COc1cc(-c2c(C#Cc3ccc4ccccc4n3)nc3c(N4CCOCC4)ccnn23)ccc1C(=O)O` [compound 91, 2-Methoxy-4-(8-morpholino-2-(quinolin-2-ylethynyl)imidazo[1,2-b]pyridazin-3-yl)benzoic acid], the 50% inhibitory concentration (IC50) in assay [1] and in assay [2] was < 1 nM throughout.

For the compound `CS(=O)(=O)NC(=O)C1CCN(c2c(/C=C/c3ccc4ccccc4n3)nc3c(N4CCOCC4)ccnn23)CC1` [compound 153, (E)-N-(Methylsulfonyl)-1-(8-morpholino-2-(2-(quinolin-2-yl)vinyl)imidazo[1,2-b]pyridazin-3-yl)piperidine-4-carboxamide], the values for the IC50 in assay [1] and in assay [2] were 4 nM and 3 nM, respectively.

On to `O=C(O)c1ccc(-c2c(CCc3ccc4ccccc4n3)nc3c(N4CCOCC4)ccnn23)o1` [compound 60, 5-(8-Morpholino-2-(2-(quinolin-2-yl)ethyl)imidazo[1,2-b]pyridazin-3-yl)furan-2-carboxylic acid], for which the 50% inhibitory concentration (IC50) in assay [1] and in assay [2] was < 1 nM each time.

For the compound `c1ccc2nc(CCc3nc4c(N5CCOCC5)ccnn4c3-c3ccc(-c4nnn[nH]4)nc3)ccc2c1` [Cpd 31, 4-(3-(6-(1H-Tetrazol-5-yl)pyridin-3-yl)-2-(2-(quinolin-2-yl)ethyl)imidazo[1,2-b]pyridazin-8-yl)morpholine trifluoroacetic acid salt], the IC50 in assay [1] is < 1 nM; in assay [2], 1 nM.

With `O=C(O)CCC(=O)Nc1ccc(-c2c(CCc3ccc4ccccc4n3)nc3c(N4CCOCC4)ccnn23)cc1` [compound 49, 4-((4-(8-Morpholino-2-(2-(quinolin-2-yl)ethyl)imidazo[1,2-b]pyridazin-3-yl)phenyl)amino)-4-oxobutanoic acid], the IC50 in assay [1] and in assay [2] was 4 nM throughout.

`O=C(O)CCNC(=O)c1ccc(-c2c(CCc3ccc4ccccc4n3)nc3c(N4CCOCC4)ccnn23)cc1` [compound 46, 3-(4-(8-Morpholino-2-(2-(quinolin-2-yl)ethyl)imidazo[1,2-b]pyridazin-3-yl)benzamido)propanoic acid]: the results for the IC50 in assay [1] and in assay [2] were 1 nM and 3 nM, respectively.

With `O=C(O)CNC(=O)c1ccc(-c2c(/C=C/c3ccc4ccccc4n3)nc3c(N4CCOCC4)ccnn23)cc1` [Cpd 66, (E)-2-(4-(8-Morpholino-2-(2-(quinolin-2-yl)vinyl)imidazo[1,2-b]pyridazin-3-yl)benzamido)acetic acid], the figures for the IC50 in assay [1] and in assay [2] were 5 nM and 9 nM, respectively.

For the compound `Oc1c(F)cc(-c2c(CCc3ccc4ccccc4n3)nc3c(N4CCOCC4)ccnn23)cc1F` [compound 81, 2,6-Difluoro-4-(8-morpholino-2-(2-(quinolin-2-yl)ethyl)imidazo[1,2-b]pyridazin-3-yl)phenol], the concentration for half-maximal inhibition (IC50) in assay [1] is 4 nM; in assay [2] it was 1 nM.

Turning to `Oc1ccc(-c2c(/C=C/c3ccc4ccccc4n3)nc3c(N4CCOCC4)ccnn23)cn1` [Cpd 16, (E)-5-(8-Morpholino-2-(2-(quinolin-2-yl)vinyl)imidazo[1,2-b]pyridazin-3-yl)pyridin-2-ol], the 50% inhibitory concentration (IC50) in assay [1] and in assay [2] was 6 nM throughout.

Take `CC(C)[C@H](Nc1ccc(-c2c(/C=C/c3ccc4ccccc4n3)nc3c(N4CCOCC4)ccnn23)cc1)C(=O)O` [Cpd 99, (S,E)-3-Methyl-2-(4-(8-morpholino-2-(2-(quinolin-2-yl)vinyl)imidazo[1,2-b]pyridazin-3-yl)phenylamino)butanoic acid trifluoroacetic acid salt]: the half-inhibitory concentration (IC50) in assay [1] is 12 nM; in assay [2], 10 nM.
